Data reported in US20250268824A1, “METHODS FOR MAKING REDUCED PARTICLE SIZE COMPOUNDS” (TaP Pharmaceuticals AG, priority 2024, published 2025).

Test: Miscibility of unprocessed prednisolone acetate with water
Format: physicochemical
Details: floats on the surface of water
Protocol: (§1) API Particle size reduction. The API, prednisolone acetate, of the present invention is destined for inclusion in ophthalmic formulation and characterized by a target PSD of: D10≤0.15 μM, D50≤0.75 μM, D90≤2.5 μM. […] Addition of surfactant (e.g. polysorbate) to aqueous solution was required to form slurries of prednisolone acetate suitable for use as vehicles in particle size reduction experiments that employed bead milling and high-pressure homogenization.
as §1, with “and in some embodiments” for “and”, “D10≤1.0” for “D10≤0.15”, “D50≤2.2” for “D50≤0.75”, “D90≤4.5” for “D90≤2.5”, “that” for “that employed bead milling and”

Which miscibility with water does the source give for `CC(=O)OCC(=O)[C@@]1(O)CC[C@H]2[C@@H]3CCC4=CC(=O)C=C[C@]4(C)[C@H]3[C@@H](O)C[C@@]21C` [prednisolone acetate] here?
Its miscibility with water is “immiscible with water”.
